Laboratory results as given in patent US10849983B2, “Development of soluble albuminated curcumin for application in cancer therapy” (Sree Chitra Tirunal Institute for Medical Sciences and …, priority 2013, dated 2020).

How the values were obtained:
[1] = system: lung cancer (A549) cells; experiment: A549 lung cancer cells, phase contrast microscopy, cell cycle analysis and apoptosis by flow cytometry; format: cell-based, human; settings: 48h, Flowjo
Experimental: (§1) To study the effect of the drug conjugate on cancer cells, Lung (A549), Leukemia (K562), & Prostate (PC-3) cell lines were procured from NCCS, Pune. On receipt, the cell lines were sub cultured and sufficient numbers of vials were stored in […]. deep freezer. To study the effect of curcumin on angiogenesis, primary endothelial cells isolated from sheep was used. The effects on primary human fibroblast cells were also studied. Each cell line was maintained in their respective recommended media. A549, PC3 and fibroblast cells were maintained in DMEM media with 10% FBS. K562 cells were maintained in IMDM media supplemented with 10% FBS and endothelial cells in MCDB media with 10% FBS, L-ascorbic acid, VEGF and L-Glutamine.
(§2) The effect of curcumin was analyzed on cell apoptosis and cycle arrest. Different concentrations of the alb-cur conjugate were added into the cultures. The concentrations employed were 250 μM, 500 μM, and 1000 μM which were achieved by adding stock prepared by dissolving lyophilized curcumin-albumin conjugate.
(§3) The efficacy of the loaded drug was analyzed using solid tumor cell lines of prostate cancer (PC-3) [FIGS. 4 & 5] lung cancer (A549) [FIGS. 6 & 7B] and suspension cell line of leukemia (K562) [FIGS. 7A & 8]. The toxicity of the conjugated albumin-curcumin complex was assed by Live/Dead assay using Annexin V in primary fibroblasts. […]

[2] = system: prostate cancer (PC-3) cells; experiment: PC-3 cells, phase contrast microscopy and Live/Dead (Annexin V) assay; format: cell-based, human; settings: 24h, phase contrast microscopy, curcumin in DMSO
Experimental: as §1, §2, §3

Row | Compound | cell cycle distribution of A549 cells (positive control) [1] | morphology of PC-3 cells [2]
1 | O=c1[nH]cc(F)c(=O)[nH]1 [Example 5-FU] | slight increase in the population of cells in the S phase | 
2 | COc1cc(/C=C/C(=O)CC(=O)/C=C/c2ccc(O)c(OC)c2)ccc1O [cur/DMSO, curcumin] |  | normal morphological features
